Experimental data taken from article PMC7747700, “Enantiomer-specific activities of an LRH-1 and SF-1 dual agonist” (Scientific Reports, 2020).

Experiments:
[1] = target: T1, H390A-LRH-1 (Homo sapiens, UniProt O00482, H390A); set-up: method as in PMID 27694446; details: cited from earlier work
T1 construct: expressed in transfected cells; host or cells: Hela cells

[2] = target: T2, Liver receptor homolog-1 (LRH-1) ligand binding domain (UniProt O00482 299-541); assay: crystal structure; LRH-1 LBD (His-tag cleaved) saturated with SS-RJW100, combined with the Tif2 NR Box 3 peptide, 6 mg/ml; hanging drop vapor diffusion at 18 °C with microseeding; 0.05 M sodium acetate pH 4.6, 5–11% PEG4000; details: both partners purified
T2 construct: also called LRH-1 LBD
T2 sequence (O00482 299-541): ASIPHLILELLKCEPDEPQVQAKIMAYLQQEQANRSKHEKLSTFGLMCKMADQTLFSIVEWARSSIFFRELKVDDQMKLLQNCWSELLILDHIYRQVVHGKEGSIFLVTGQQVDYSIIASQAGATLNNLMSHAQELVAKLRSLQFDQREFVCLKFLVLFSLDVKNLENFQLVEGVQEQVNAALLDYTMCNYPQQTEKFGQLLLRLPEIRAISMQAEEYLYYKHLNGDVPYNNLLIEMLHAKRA

T1 sequence (O00482 whole entry H390A): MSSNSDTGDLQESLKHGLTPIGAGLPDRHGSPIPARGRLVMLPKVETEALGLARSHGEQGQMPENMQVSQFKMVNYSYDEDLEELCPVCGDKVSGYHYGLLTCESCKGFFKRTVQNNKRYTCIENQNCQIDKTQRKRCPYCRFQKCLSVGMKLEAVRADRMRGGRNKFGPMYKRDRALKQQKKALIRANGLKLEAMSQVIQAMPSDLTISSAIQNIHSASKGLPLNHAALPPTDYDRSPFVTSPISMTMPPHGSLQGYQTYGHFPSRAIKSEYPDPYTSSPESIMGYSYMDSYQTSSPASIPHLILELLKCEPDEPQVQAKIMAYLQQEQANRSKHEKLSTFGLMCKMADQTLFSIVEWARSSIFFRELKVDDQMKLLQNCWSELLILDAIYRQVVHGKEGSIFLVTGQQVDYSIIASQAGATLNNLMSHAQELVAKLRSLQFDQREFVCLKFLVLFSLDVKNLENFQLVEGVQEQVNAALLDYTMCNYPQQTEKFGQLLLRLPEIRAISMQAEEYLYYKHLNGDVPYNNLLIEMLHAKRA

binding result [2] | Molecule | activation of H390A-LRH-1 [1]
 | CCC/C=C(\CCC)C1=C(c2ccccc2)[C@]2(Nc3ccccc3)CCC[C@@H]2C1 [GSK8470] | cannot activate
binds | KENALLRYLLDKDDT (source: synthetic peptide (RS Synthesis)) [peptide corresponding to the NR Box 3 of the Tif2 coactivator] | 
